Tested on: IFN-β
Assay: Semi-quantitative RT-PCR of IFN-β gene expression in THP1-Dual / KO STING cells
Format: cell-based
Conditions: THP1-WT, treated 5 or 22 hrs; Cmd 1 alone (no lipo)
Description: RNA samples were prepared using Qiagen RNeasy kit and the expression of IFNβ, IRF7 and housekeeper gene β-actin was determined using semi-quantitative reverse transcription (RT)-PCR (started with equal amounts of RNA). PCR products were subjected to 1% agarose gel electrophoresis.
Lipofectamine 2000 also activates IFN-β gene, but cells were treated with Cmd 1 alone (no lipo). DMSO is the negative control.

`Nc1nc2c(ncn2[C@@H]2O[C@@H]3COP(=O)(O)O[C@H]4[C@@H](O)[C@H](n5cnc6c(N)ncnc65)O[C@@H]4COP(=O)(O)O[C@@H]2[C@@H]3O)c(=O)[nH]1` [2′3′-cGAMP] was tested, and the “Time to induce IFN-β gene expression” value was at most 5 h.
